Consider three substances from patent publication US10052415B2, “Tropoelastin for promoting endothelial cell adhesion or migration” (University of Utah Research Foundation, priority 2005, dated 2018).

Common to all, as to assay type: cell-based
The subject of assay [1] is human aortic endothelial cells (HuAEC). The assay is described as follows: Boyden chamber migration assay, HuAEC. The note with it: FIG. 3; for migration of HuAECs: 200 ng/ml Tropoelastin, 10 μM peptides, BSA control. On the procedure:
Migration of HuAECs to BSA, fibronectin, and recombinant tropoelastin was measured.
We assayed the hexamer VGVAPG (SEQ ID No. 5). This hexameric sequence is repeated multiple times within the full length tropoelastin protein. […] We additionally assayed a 17 residue C-terminal fragment of the tropoelastin protein. This 17 amino acid residue is depicted in SEQ ID NO: 6 (IFPGGACLGKACGRKRK).
(§1) Briefly, 16 h before the assay, 70% confluent 75 cm^2 flasks of human melanoma A2058 cell (ATCC, passage 3-12) or human aortic endothelial cells (HAEC; Cambrex, passage 4-7) were kept in basal media (dMEM+0.1% BSA, or EBM-2+1% FCS, respectively). Cells were lifted with 0.25% Trypsin/1 mM EDTA, diluted in 0.5% BSA (dMEM) and washed 3 times in basal media (dMEM+0.1% BSA) or (EBM-2+0.1% FCS,) and recovered in suspension at working density (2×10^6/ml for A2058 or 1.5×10^6 HAEC) for 1 h at 37° C. (5% CO2). For migration-inhibition assays, the cells were preincubated during the recovery period for 30 minutes in 25 μg/ml anti-integrin antibodies (Chemicon, Temecula, Calif.) or control IgG (Jackson ImmunoResearch, Inc.). All migration assays were performed in triplicate in a 48-well Boyden chamber apparatus (NeuroProbe, Cabin John, Md.). The recovered cells were added to the bottom chambers in a volume of 30 μl. The wells were overlayed with an 8 μm-pore polycarbonate membrane (NeuroProbe, Cabin John, Md.) and coated with 100 μg/ml Rat tail collagen (Trevigen, Gaithersburg, Md.) for A2058 cells or acetylated 1% gelatin from porcine skin (Sigma, St. Louis, Mo.) for HAEC. The apparatus was assembled and stored inverted at 37° C. (5 CO2) for a 2 h adhesion-period. The apparatus was re-inverted and 52 μl of the chemoattractants, 10 mg/ml Fibronectin, 200 ng/ml Tropoelastin, 10 μM elastin-derived peptides; VGVAPG (SEQ ID No. 5), and IFPGGACLGKACGRKRK (SEQ ID No. 6 (Cterm peptide) or 0.1% BSA/dMEM (diluent, random migration control), were added to the upper chambers and the migration was allowed to proceed for 2 h in a humidified incubator at 37° C. (5% CO2). The membranes were then removed, fixed in methanol, stained with a Hema 3 stain set (Fisher Scientific, Pittsburgh, Pa.) and mounted migrated-side down to a 50×75 mm glass slide. Before 90% mounting medium (in xylenes) was applied, the non-migrated cells were removed from the exposed, non-migrated face of the membrane with a moistened swab. Readings represent the number of cells migrating through the membrane (the sum of two high power X 20 fields/well, averaged for each sextuplicate-well set).

Assay [2] deals with A2058 human melanoma cells. As to the kind of experiment: Boyden chamber migration assay, A2058 cells. As to conditions: FIG. 5. On the procedure:
as §1, with “The apparatus was re-inverted and 52 μl of the chemoattractants, 10 mg/ml Fibronectin, 200 ng/ml Tropoelastin, 10 μM elastin-derived peptides; VGVAPG (SEQ ID No. 5), and IFPGGACLGKACGRKRK (SEQ ID No. 6 (Cterm peptide) or 0.1% BSA/dMEM (diluent, random migration control), were added to the upper chambers and the migration was allowed to proceed for 2 h in a humidified incubator at 37° C. (5% CO2). The membranes were then removed, fixed in methanol, stained with a Hema 3 stain set (Fisher Scientific, Pittsburgh, Pa.) and mounted migrated-side down to a 50×75 mm glass slide. Before 90% mounting medium (in xylenes) was applied, the non-migrated cells were removed from the exposed, non-migrated face of the membrane with a moistened swab.” left out

For another assay, the system named is CHO cells. The assay is described as follows: Cell adhesion assay on coated culture plates, CHO cells. The note with it: culture plates coated with 10 ug/ml protein; 0.1% BSA control. The method, then:
(§2) Cells were plated on culture plates coated with either 0.1% BSA (as a control), 10 ug/ml fibronectin (FN), or 10 ug/ml recombinant tropoelastin, and assayed for adherence to the coated substrate.
(§3) 96-well plates were coated in duplicate overnight at 4° C. with 10 μg/ml collagen, fibronectin, tropoelastin, or 0.1% bovine serum albumin (BSA). Cells were harvested with 0.25% trypsin/1 mM EDTA, washed three times in adhesion buffer (0.5% BSA in basal medium), suspended at a working density of 5×10^5/ml in adhesion buffer, and then allowed to recover for 1 h at 37° C. (5% CO2). For integrin-blocking assays, 25 μg/ml anti-integrin antibodies (Chemicon, Temecula, Calif.) or control IgG (Jackson ImmunoResearch Laboratories, Inc, West Grove, Pa.) were added to the cell suspension during the recovery period. During the cell recovery, the coated 96-well plates were washed twice in dPBS and blocked for 1 h at 25° C. in 5.0% BSA (dPBS). The blocking solution was removed, and the wells were washed twice in dPBS. Recovered cells were added to the coated wells in a volume of 100 μl per well and placed at 37° C. for 30 minutes (5% CO2). […] Readings represent the number of adherent cells/well (average six high powered 100× fields, three taken from each of two separate wells).

For assay [3], the system named is human embryonic kidney cells (HEK 293). As to the kind of experiment: Cell adhesion assay on coated culture plates, HEK 293 cells. The note with it: culture plates coated with 10 ug/ml protein; 0.1% BSA control. On the procedure: as §2, §3
Assay [4] relates to human aortic smooth muscle cells (HuAoSMC). The assay is described as follows: Cell adhesion assay on coated culture plates, HuAoSMC. The note with it: culture plates coated with 10 ug/ml protein; 0.1% BSA control. The method, then:
as §2, §3

Assay [5] relates to human aortic endothelial cells (HuAEC). The assay is described as follows: Cell adhesion assay on coated culture plates, HuAEC. As to conditions: culture plates coated with 10 ug/ml protein; 0.1% BSA control. The method, then: as §2
(§4) 96-well plates were coated in duplicate overnight at 4° C. with 10 μg/ml collagen, fibronectin, tropoelastin, or 0.1% bovine serum albumin (BSA). Cells were harvested with 0.25% trypsin/1 mM EDTA, washed three times in adhesion buffer (0.5% BSA in basal medium), suspended at a working density of 5×10^5/ml in adhesion buffer, and then allowed to recover for 1 h at 37° C. (5% CO2). For integrin-blocking assays, 25 μg/ml anti-integrin antibodies (Chemicon, Temecula, Calif.) or control IgG (Jackson ImmunoResearch Laboratories, Inc, West Grove, Pa.) were added to the cell suspension during the recovery period. During the cell recovery, the coated 96-well plates were washed twice in dPBS and blocked for 1 h at 25° C. in 5.0% BSA (dPBS). The blocking solution was removed, and the wells were washed twice in dPBS. Recovered cells were added to the coated wells in a volume of 100 μl per well and placed at 37° C. for 30 minutes (5% CO2). Following this incubation, the assay plate was inverted and assay wells were washed twice with 100 μl dPBS to remove non-specifically adhered cells. The wells were then fixed in Zamboni fixative, stained with Gill 1 hematoxylin, and overlayed with 80% glycerol. The assay was imaged at 100× magnification, capturing 3 random fields/well on a Zeiss Axiovert 200 inverted microscope equipped with a Zeiss Axiocam digital camera. Readings represent the number of adherent cells/well (average six high powered 100× fields, three taken from each of two separate wells).

Assay [6] concerns A2058 human melanoma cells. The assay is described as follows: Cell adhesion assay, A2058 cells. The note with it: for adhesion of A2058 cells in comparison to BSA: FIG. 4, coated substrates, peptide 10 μM. The method, then: A2058 cells were assayed for adherence to substrates coated with BSA (control), fibronectin, tropoelastin, or a bioactive fragment of tropoelastin corresponding to a single repeat of the hexameric sequence VGVAPG (SEQ ID No. 5). In comparison to adherence to BSA, A2058 cells adhered to substrates coated with fibronectin tropoelastin, or a bioactive fragment of tropoelastin.
as §4, with “Cells” for “96-well plates were coated in duplicate overnight at 4° C. with 10 μg/ml collagen, fibronectin, tropoelastin, or 0.1% bovine serum albumin (BSA). Cells”

Ends that are not written are not given here.

For the substance “IFPGGACLGKACGRKRK (chemically synthesized bioactive fragment of tropoelastin) [C-terminal fragment]”, in assay [1], the “level of HuAEC migration relative to comparator” value is “at least as well as, and possibly better than, the fall length tropoelastin protein”; the “migration of HuAECs” value is listed as “promoted migration of endothelial cells”. The “level of A2058 migration compared among tropoelastin and fragments” value in assay [2] was “promoted migration of A2058 cell at comparable levels”.

For fibronectin [reference compound], the “adhesion of CHO cells to the coated substrate” value with CHO cells is given as “adhered to fibronectin”. Besides, the “adhesion of HEK 293 cells to the coated substrate” value in assay [3] is “adhered to fibronectin”. Further, the “adhesion of HuAoSMC to the coated substrate” value in assay [4] is given as “adhered to fibronectin”. Also, the “adhesion of HuAEC to the coated substrate” value in assay [5] is reported as “adhered to fibronectin”. Also, the “adhesion of A2058 cells in comparison to BSA” value in assay [6] is given as “adhered”.

Turning to VGVAPG, in assay [1], the “level of HuAEC migration relative to comparator” value was “at least as well as, and possibly better than, the fall length tropoelastin protein”; the “migration of HuAECs” value is “promoted migration of endothelial cells”. Also, the “level of A2058 adhesion relative to full length tropoelastin” value in assay [6] (10 μM of a single repeat of the hexameric sequence) was “at a level similar to 10 μg/ml of full length tropoelastin”. In addition, the “adhesion of A2058 cells in comparison to BSA” value in assay [6] is recorded as “promoted adhesion of A2058 cells”. Further, in assay [2], the “level of A2058 migration compared among tropoelastin and fragments” value was “promoted migration of A2058 cell at comparable levels”.
